Where two headings read alike, the source gives them in different places.
Tests used:
MM1S cells [1] = assay: Daratumumab-mediated MM1S tumor cell clearance in co-culture with conditioned THP-1 macrophages (ADCP assay); format: cell-based; conditions: for daratumumab-mediated tumor cell killing by macrophages (% specific MM1S cell clearance): THP-1 conditioned 48 hours with media of treated MM1S, 1 μg/ml daratumumab, E:T 2:1, 18 hours, FIG. 4
Procedure: FIG. 4 illustrates the level of MM1S tumor cell clearance in co-culture of MM1S cells and THP-1 macrophages. Prior to initiation of co-cultures, THP-1 cells were cultured 48 hours in conditioned media generated from untreated MM1S tumor cells or MM1S cells treated with lenalidomide (FIG. 4A), bortezomib (FIG. 4B) or cyclophosphamide (CTX) alone or in combination with bortezomib or lenalidomide (FIG. 4C). MM1S cells were stained with calcein and incubated with daratumumab or IgG1 isotype control ([…]) and co-culture with THP-1 cells at a 2:1 effector to target ratio for 18 hours. Cell frequency was determined using the Accuri C6 (Right). The % specific cell clearance was calculated by the following formula:
100−100*(The frequency of calcein stained MM1S cells in the presence of 1 μg/ml daratumumab/
The frequency of calcein stained MM1S cells in the presence of Isotype control).
Co-cultures of MM1S and THP-1 cells were incubated in the presence of cytochalasin to assess if daratumumab mediated MM1S killing by ADCP. […] FIG. 5 illustrates the level of daratumumab-mediated tumor cell clearance in co-cultures of MM1S and THP-1 cells. Prior to initiation of co-cultures, THP-1 cells were cultured 48 hours in conditioned media generated from untreated MM1S tumor cells or MM1S cells treated with lenalidomide (FIG. 5A) or cyclophosphamide alone or in combination with lenalidomide or bortezomib (FIG. 5B) in the absence or presence of 1 μg/ml cytochalasin D. The % specific cell clearance was calculated by the following formula: […]

[2] = tested on: CD47 on CD45-CD19-CD138+ plasma cells; conditions: 24 hour treatment vs baseline
Procedure: Ethics: Pre-screened newly diagnosed MM patients were enrolled into the sub-clinical study by informed consent according to predetermined protocols and standard operating procedures for sample draw and included extraction of relevant details from medical records.
Samples Isolation: Isolation of mononuclear cells (MC) from PB and BM aspirates were performed by layering 3mL EDTA-anti-coagulated sample over 3mL endotoxin-free Ficoll Plaque density-gradient medium (GE Healthcare, Little Chalfont, United Kingdom) in 15-mL Falcon tubes (Sarstedt, North Rhine-Westphalia, Niimbrecht, Germany), and centrifuged at 420 relative centrifugal force (RCF) for 22 minutes at 4° C. without braking. The “buffy coat” layer was isolated and washed twice with Fluorescence-activated cell sorting (FACS buffer) [2% foetal calf serum (Lonza, Basel, Switzerland), PBS and 0.05% NaN3 (Sigma-Aldrich, St. Louis, Mo., USA)]. […] Cells were counted using a haemocytometer and 5×10^5 cells per sample were stained for phenotypic characterisation by flow cytometry
Characterisation Studies: Plasma cells: Cell surface expression of CD38, CD47, CD319 (SLAMF7), B-cell maturation antigen (BCMA), MIC A/B, Programmed death-ligand (PDL) 1, PDL2, CD54, CD11a and CD48 were analysed on CD45-CD19-CD138+ Plasma cells by flow cytometry. […]

[3] = tested on: CD32 (FcγRIIa/b) expression on THP-1 macrophages; assay: CD32 (FcγRIIa/b) expression on THP-1 macrophages incubated in conditioned media from treated MM1S cells; conditions: THP-1 cells, 48 hours in conditioned media from treated MM1S cells; FIG. 3B
Procedure: (§1) Cells: The multiple myeloma cell line, MM1S, was sub-cultured in RPMI 1640 media supplemented with 10% FBS and 50 IU/ml penicillin and 50 μg/ml Streptomycin. […] THP-1 cells were sub-cultured in RPMI 1640 media supplemented with 10% FBS and 50 IU/ml Penicillin and 50 μg/ml streptomycin. Cells were plated at a cell density of 2×10^5 cells/ml for experiments. […] Fresh media was added and the cells were further incubated for 24 hours after collecting the conditioned media. […] All antibodies were purchased from BD Pharmingen™ unless otherwise stated. Cells were stained with anti-CD38 (APC-conjugated) and anti-CD47 (FITC-conjugated, eBiosciences) antibodies and the level of expression of CD38 and CD47 was assessed. Sytox advanced reagents were used to assess cell death. Cells were analysed by flow cytometry. Sytox positive cells were excluded from analysis. The mean fluorescent intensity was calculated by expressing the fluorescent intensity of each sample relative to the cell size. […] FcγRI and FcγRlla/b expression was assessed by flow cytometry 48 hours later using anti-FcγRI (APC-conjugated) and anti- FcγRIIa/b (PE-conjugated) antibodies. The mean fluorescent intensity was calculated by expressing the fluorescent intensity of each sample relative to the cell size and subtracting the values for the isotype control/unstained samples.

[4] = tested on: CD47 expression on multiple myeloma cells (MM1S); assay: Flow cytometry of cell surface CD47 expression on treated MM1S cells; conditions: 24 hours after treatment, CTX 2.5, 5, 10 μM, CTX 10 μM with Bort 1 nM or Len 1 μM, FIG. 2C
Procedure: as §1

[5] = tested on: CD38 expression on multiple myeloma cells (MM1S); assay: Flow cytometry of cell surface CD38 expression on treated MM1S cells; conditions: 48 hours after treatment, CTX 2.5, 5, 10 μM, CTX 10 μM with Bort 1 nM or Len 1 μM, FIG. 1
Procedure: as §1

MM1S cells [6] = format: cell-based, human; conditions: for proportion of tumour cell clearance accounted for by ADCP: ± 1 μg/ml cytochalasin D, n=1
Procedure: Antibody Dependant cellular phagocytosis (ADCP): To determine the number of macrophages per sample, 50 μl of 5×10^6 cells/mL concentration of MC isolated from PB and BM were diluted using 150 μl FACS buffer. Based on forward and side scatter profiles, the total number of macrophages were determined by timed acquisition events per unit volume using an Accuri™ C6. […] Cells were washed, incubated with mouse anti-human CD45-APC (BD Biosciences, San Jose, CA) and mouse anti-human CD14-PerCP-Cy5.5 (Miltenyi Biotech, Cologne, Germany) for 15 mins, then washed and re-suspended in 200 μl FACS buffer for sample acquisition. Macrophage and MM1S cells were gated using CFSE+ and CD45+CD14+ cells gating. Cell frequency was determined using the BD Canto IITM flow cytometer. Antibody-dependent phagocytosis was assessed and quanti?ed as follows: Phagocytosis was quanti?ed by frequency of remaining target cells (CFSE positive) with and without Ab treatment or isotype control. […] ADCP mediated clearance was calculated using the following formula: 100-100*(Proportion of live Dara-treated MM1S cells in untreated macrophage co-culture/ Proportion of live Dara-treated MM1S cells in CytoD conditioned macrophage co-culture).

[7] = tested on: CD64 (FcγRI) expression on THP-1 macrophages; assay: CD64 (FcγRI) expression on THP-1 macrophages incubated in conditioned media from treated MM1S cells; conditions: THP-1 cells, 48 hours in conditioned media from treated MM1S cells; FIG. 3A
Procedure: as §1

In the case of C=C1[C@@H](C)[C@H]2[C@H](Cc3ccccc3)NC(=O)[C@]23[C@H](OC(C)=O)/C=C/[C@@](C)(O)C(=O)[C@@H](C)C/C=C/[C@H]3[C@@H]1O [Cytochalasin D], the “daratumumab-mediated tumor cell clearance in the presence of cytochalasin D” value (MM1S cells [1]; 1 μg/ml cytochalasin D in MM1S/THP-1 co-cultures, FIG. 5) was “reduced”.
CC(C)C[C@H](NC(=O)[C@H](Cc1ccccc1)NC(=O)c1cnccn1)B(O)O [bortezomib] was tested, and the “daratumumab-mediated tumor cell killing by macrophages (% specific MM1S cell clearance)” value (MM1S cells [1]) was “potentiated”.
With O=P1(N(CCCl)CCCl)NCCCO1 (centres unmarked) [cyclophosphamide] the “CD47 surface expression (MFI) on plasma cells, bone marrow” value ([2]; BM, n=3, P=0.0555, FIG. 6B) was “decreased”, the “CD47 surface expression (MFI) on plasma cells, peripheral blood” value ([2]; PB, n=3, cyclophosphamide 150-300 mg/m^2, FIG. 6A) was “decreased” and the “MFI of cell surface CD32 (FcγRIIa/b) expression” value [3] was “induced”. The “mean fluorescence intensity (MFI) of cell surface CD47 expression” value [4] was “reduced”, the “mean fluorescence intensity (MFI) of cell surface CD38 expression” value [5] was “induced” and the “proportion of tumour cell clearance accounted for by ADCP” value (MM1S cells [6]; BM macrophages 24 hours after treatment with cyclophosphamide, FIG. 8C) was greater than 25%. For the same compound, the “tumour cytotoxicity by macrophages in co-culture of PB or BM-derived macrophages and multiple myeloma cells” value (MM1S cells [6]; patient macrophages 24 hours after treatment vs prior to treatment) was “augmented”, the “MFI of cell surface CD64 (FcγRI) expression” value [7] was “induced” and the “daratumumab-mediated tumor cell killing by macrophages (% specific MM1S cell clearance)” value (MM1S cells [1]) was “potentiated”. The “daratumumab-mediated tumor cell killing by macrophages (% specific MM1S cell clearance)” value (MM1S cells [1]; listed as Cyclophosphamide) was “augmented” and the “mechanism of the potentiation of anti-myeloma activity of daratumumab” value (MM1S cells [1]; concluded from cytochalasin D inhibition, FIG. 5) was “dependent on macrophage mediated ADCP”.
For Nc1cccc2c1CN(C1CCC(=O)NC1=O)C2=O (centres unmarked) [lenalidomide], the “daratumumab-mediated tumor cell killing by macrophages (% specific MM1S cell clearance)” value (MM1S cells [1]) was “potentiated” and the “daratumumab-mediated tumor cell killing by macrophages (% specific MM1S cell clearance)” value (MM1S cells [1]; listed as lenalodomide) was “augmented”.
daratumumab was tested, and the “proportion of tumour cell clearance accounted for by ADCP” value (MM1S cells [6]; BM macrophages prior to treatment, FIG. 8C) was greater than 15% and the “difference between Dara and Isotype within the ADCP assay” value (MM1S cells [6]; patient had received Daratumumab 16 mg/kg infusion, FIG. 8C) was “minimal difference”.

— patent publication US20180117150A1, “Combination Therapies for CD38-Positive Hematological Malignances with ANTI-CD38 Antibodies and Cyclophosphamide” (Janssen Biotech, Inc., priority 2016, published 2018)
